According to publication PMC6470838 (Pharmaceutics, 2019):
Read-outs that look alike come from different tables or passages of the source.

Columns and labels:
[1] = ketoconazole 400 mg, qd; cited from earlier work
prothrombin time [2] = experiment: Prothrombin time after oral administration of rivaroxaban in rats; assay type: in vivo, Sprague Dawley rats; conditions: for AUEC, area under the percentage increase of prothrombin time vs. time curve / Emax, maximum percentage increase of prothrombin time: rivaroxaban 2 mg/kg oral, alone or with verapamil 25 mg/kg or diltiazem 30 mg/kg, mean (RSD %), n = 5
Protocol: (§1) All drugs were suspended in corn oil and administered orally.
(§2) After centrifugation (17,000 rpm, 10 min), plasma samples were stored at –70 °C until analysis, using 30 μL of plasma.
Prothrombin time was measured using a blood coagulation analyzer (ACL 7000, Instrumentation Laboratory, Bedford, MA, USA) at Korea Conformity Laboratories (Incheon, Korea) using PT recombiPlasTin 2G reagent (Instrumentation Laboratory, Bedford, MA, USA).
The time courses of prothrombin time were used to determine pharmacodynamic parameters: peak effect observed (Emax,observed) was directly obtained from the individual time courses; and the area under the effect-time curve (AUECt) was calculated by the trapezoidal rule.

prothrombin time [3] = test system: prothrombin time
prothrombin time [4] = conditions: humans; cited from earlier work
[5] = Rivaroxaban plasma pharmacokinetics after oral administration in rats (model independent analysis); assay type: in vivo, Sprague Dawley rats
Protocol: The animals used in this study were 15 Sprague Dawley rats (8-week-old males, 280–300 g). […] The study protocol was approved by the Institutional Animal Care and Use Committees (IACUC) at Chung-Ang University. All animals used in this study were cared for in accordance with the principles outlined in the National Institutes of Health Guide for the Care and Use of Laboratory Animals.
as §1, §2
Acetonitrile (90 μL) including flufenamic acid (10 ng/mL) was added to the plasma samples (30 μL). The mixture was vigorously vortexed for 10 s and centrifuged at 17,000 rpm for 10 min. A 5-μL sample of the supernatant was injected onto the LC-MS/MS.
The compounds were purified on a reversed-phase column (Atlantis® T3, 50 × 2.1 mm internal diameter, 3 µm particle size; Waters) at 30 °C.

in vivo = conditions: male, Sprague Dawley, rat, plasma, oral, 2 mg/kg
[6] = compared with rivaroxaban 2 mg/kg alone, verapamil 25 mg/kg oral, rats
[7] = male, Sprague Dawley, rat, plasma, po, 2 mg/kg
[8] = PK/PD model parameter of rivaroxaban, presence or absence of verapamil, mean (RSD %), n = 5
[9] = diltiazem 30 mg/kg oral, rats, vs rivaroxaban alone

SMILES: CC(=O)N1CCN(c2ccc(OCC3COC(Cn4ccnc4)(c4ccc(Cl)cc4Cl)O3)cc2)CC1 (stereo not shown) [ketoconazole]
- Effect of the concomitant drug on the systemic exposure of rivaroxaban [1]: significantly increased

SMILES: COc1ccc(CCN(C)CCCC(C#N)(c2ccc(OC)c(OC)c2)C(C)C)cc1OC (stereo not shown) [Verapamil]
- Increase of AUEC of prothrombin time by the co-administered drug (prothrombin time [2]; [6]): 2.6 fold
- Increase of Emax of prothrombin time by the co-administered drug (prothrombin time [2]; [6]): 2.5 fold
- Effect of the co-administered drug on the slope (percentage increase of prothrombin time vs. rivaroxaban concentration) (prothrombin time [3]; verapamil 25 mg/kg, rats): no difference

SMILES: O=C(NC[C@H]1CN(c2ccc(N3CCOCC3=O)cc2)C(=O)O1)c1ccc(Cl)s1 [Rivaroxaban]
- Slope of relative prothrombin time vs. rivaroxaban plasma concentration (prothrombin time [4]): approximately 0.0029
- AUEC, area under the percentage increase of prothrombin time vs. time curve (prothrombin time [2]): 188 (9) % ∙h
- Emax, maximum percentage increase of prothrombin time (prothrombin time [2]): 30 (11) %
- AUEC, area under the percentage increase of prothrombin time vs. time curve (prothrombin time [2]; listed as rivaroxaban): 188 % ∙h
- Emax, maximum percentage increase of prothrombin time (prothrombin time [2]; listed as rivaroxaban): 30%
- AUC(0-inf) [5, 7]: 2700 ng·h/mL
- CL/F [5, 7]: 12.9 mL/min/kg
- Cmax [5, 7]: 373 ng/mL
- Tmax [5, 7]: 2.8 h
- AUCinf ([5]; rivaroxaban in plasma, rivaroxaban 2 mg/kg oral, alone or with verapamil 25 mg/kg or diltiazem 30 mg/kg, mean (RSD %), n = 5): 2700 ng·h/mL
- Vd/F (in vivo): 0.96 L/kg
- k el (in vivo): 0.000236 s⁻¹
- Slope, percentage increase of prothrombin time vs. rivaroxaban plasma concentration (prothrombin time [3]; [8]): 0.08 (44) %·mL/ng
- f, absorption fraction (prothrombin time [3]; [8]): 0.61 (30) fraction
- ka, absorption rate constant (prothrombin time [3]; [8]): 0.63 (22) h^−1
- ttransit, transit time (prothrombin time [3]; [8]): 6.37 (21) h
- ttransit, transit time (prothrombin time [3]; PK/PD model parameter of rivaroxaban, presence or absence of verapamil, mean (RSD %), n = 5, listed as rivaroxaban): 6.4 h
- Slope of relative prothrombin time (ratio of the baseline level) vs. rivaroxaban plasma concentration (prothrombin time [3]; rats, prothrombin times rescaled to ratio of baseline): 0.00054
- Part of the dose initially absorbed, contributing to the first peak (prothrombin time [3]; rivaroxaban alone, model estimate): 40%

SMILES: COc1ccc([C@@H]2Sc3ccccc3N(CCN(C)C)C(=O)[C@@H]2OC(C)=O)cc1 [diltiazem]
- Effect of the co-administered drug on Emax and AUEC of prothrombin time (prothrombin time [2]; [9]): did not represent any significant changes
- Effect of the co-administered drug on clearance and AUCinf of rivaroxaban [5, 9]: no statistical differences
